For the series the following is noted: 298.15 K; 100 kPa; Liquid; Vibrating tube method.

We go through seven compounds from the NIST ThermoML archive (doi:10.1016/j.jct.2017.09.027).

Molecules are shown by their SMILES. ± gives the expanded uncertainty stated by the source.

As for `CCCCCCCCC` [nonane], the mass density (in general, the mass of a sample divided by its volume) was found to be 713.93 ± 1.7 kg/m3.
As for `CCCCCCCC` [octane], the mass density amounted to 698.71 ± 1.7 kg/m3.
On to `CC(C)CC(C)(C)C` [2,2,4-trimethylpentane], for which the mass density was determined as 687.32 ± 1.7 kg/m3.
Take `N#CCCc1ccccc1` [3-phenylpropanenitrile]: the mass density was 996.44 ± 2.4 kg/m3.
In the case of `N#CCc1ccccc1` [benzeneacetonitrile], the mass density worked out at 1012.89 ± 2.6 kg/m3.
`C1CCCCCCC1` [cyclooctane]: the mass density came out at 831.61 ± 2 kg/m3.
The figure for `CCCCCCC` [heptane] is 679.71 ± 1.6 kg/m3.
